Test results taken from patent publication US12338262B2 (Forward Therapeutics, Inc., priority 2022, dated 2025).

What follows are compounds tested against TNF-α (Homo sapiens, UniProt P01375) (assay: TNF-α Induced HEK Blue Cellular Assay). Conditions: HEK Blue TNFα reporter cells, TNF-α 100 pg/ml, 24 hrs at 37° C., secreted alkaline phosphatase (QUANTI-Blue, 620 nm).
Chain of TNF-α (P01375 77-233 limits assumed): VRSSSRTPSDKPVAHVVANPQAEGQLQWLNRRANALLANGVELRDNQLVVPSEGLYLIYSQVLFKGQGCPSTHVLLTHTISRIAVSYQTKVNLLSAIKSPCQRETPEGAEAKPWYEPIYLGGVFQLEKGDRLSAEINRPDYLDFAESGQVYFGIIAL
Assay type: cell-based
Method in brief: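 Read-out is SEAP via QUANTI-Blue absorbance at 620 nm after a 24 h, 37 °C incubation of reporter HEK Blue cells with 100 pg/ml TNF-α plus compound at final […]–0.5 nM. Percent inhibition normalised to DMSO ± stimulation; 4-parameter logistic fit gives IC50.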
`CC[C@@H](Nc1c(Cl)c(C)nc2cc(F)c(-c3cnc(P(C)(C)=O)nc3)nc12)c1cccc(F)c1F` [Example 113, (R)-(5-(7-chloro-8-((1-(2,3-difluorophenyl)propyl)amino)-3-fluoro-6-methyl-1,5-naphthyridin-2-yl)pyrimidin-2-yl)dimethylphosphine oxide] was tested, and the IC50 was no more than 1000 nM.
Work on `Cc1nc2cc(F)c(-c3ccc(P(C)(C)=O)nc3)c(F)c2c(NC(C)c2ncccc2F)c1Cl` (centres unmarked) [Example 97, 3-chloro-6-[6-(dimethylphosphoryl)pyridin-3-yl]-5,7-difluoro-N-[1-(3-fluoropyridin-2-yl)ethyl]-2-methylquinolin-4-amine] yielded an IC50 of no more than 1000 nM.
With `Cc1nc2cc(F)c(-c3ccc(P(C)(C)=O)nc3)nc2c(N[C@H](C)c2c(F)cccc2F)c1Cl` [Example 52, 3-chloro-N-[(1R)-1-(2,6-difluorophenyl)ethyl]-6-[6-(dimethylphosphoryl)pyridin-3-yl]-7-fluoro-2-methyl-1,5-naphthyridin-4-amine] the IC50 was no more than 1000 nM.
Work on `Cc1nc2cc(F)c(-c3ccc(P(C)(C)=O)nc3)nc2c(N[C@H](C)c2ccc(F)c(F)c2F)c1Cl` (single isomer, unassigned) [Example 109] yielded an IC50 of no more than 100 nM.
Work on `Cc1nc2cc(F)c(-c3ccc(P4(=O)CCCC4)nc3)nc2c(N[C@H](C)c2cc(C#N)ccc2F)c1Cl` [Example 27, 3-[(1R)-1-({3-chloro-7-fluoro-2-methyl-6-[6-(1-oxo-1lambda5-phospholan-1-yl)pyridin-3-yl]-1,5-naphthyridin-4-yl}amino)ethyl]-4-fluorobenzonitrile] yielded an IC50 of no more than 100 nM.
`C[C@@H](Nc1c(Cl)cnc2cc(F)c(-c3cnc(P(C)(C)=O)nc3)nc12)c1cc(C#N)ccc1F` [Example 14, 3-[(1R)-1-({3-chloro-6-[2-(dimethylphosphoryl)pyrimidin-5-yl]-7-fluoro-1,5-naphthyridin-4-yl}amino)ethyl]-4-fluorobenzonitrile] showed an IC50 of no more than 1000 nM.
In the case of `Cc1nc2cc(F)c(-c3ccc(P(C)(C)=O)nc3)nc2c(N[C@H](c2cc(C#N)ccc2F)C(F)F)c1Cl` [Example 35, (R)-3-(1-((3-chloro-6-(6-(dimethylphosphoryl)pyridin-3-yl)-7-fluoro-2-methyl-1,5-naphthyridin-4-yl)amino)-2,2-difluoroethyl)-4-fluorobenzonitrile], the IC50 is reported as no more than 1000 nM.
`Cc1nc2cc(F)c(-c3ccc(P(C)(C)=O)nc3)nc2c(N[C@@H](c2ccccc2F)C(F)(F)F)c1Cl` [Example 70, 3-chloro-6-[6-(dimethylphosphoryl)pyridin-3-yl]-7-fluoro-2-methyl-N-[(1S)-2,2,2-trifluoro-1-(2-fluorophenyl)ethyl]-1,5-naphthyridin-4-amine] showed an IC50 of no more than 100 nM.
`CCP(=O)(CC)c1ccc(-c2nc3c(N[C@H](C)c4cc(C#N)ccc4F)c(Cl)c(C)nc3cc2F)cn1` [Example 42, 3-[(1R)-1-({3-chloro-6-[6-(diethylphosphoryl)pyridin-3-yl]-7-fluoro-2-methyl-1,5-naphthyridin-4-yl}amino)ethyl]-4-fluorobenzonitrile] gave an IC50 of no more than 100 nM.
Work on `Cc1nc2cc(F)c(-c3ccc(OCP(C)(C)=O)nc3)nc2c(N[C@H](C)c2cc(C#N)ccc2F)c1Cl` [Example 33, 3-[(1R)-1-[(3-chloro-6-{6-[(dimethylphosphoryl)methoxy]pyridin-3-yl}-7-fluoro-2-methyl-1,5-naphthyridin-4-yl)amino]ethyl]-4-fluorobenzonitrile] yielded an IC50 of no more than 100 nM.
`Cc1cc(P(C)(C)=O)ncc1-c1nc2c(N[C@H](C)c3cc(C#N)ccc3F)c(Cl)c(C)nc2cc1F` [Example 61, 3-[(1R)-1-({3-chloro-6-[6-(dimethylphosphoryl)-4-methylpyridin-3-yl]-7-fluoro-2-methyl-1,5-naphthyridin-4-yl}amino)ethyl]-4-fluorobenzonitrile] gave an IC50 of no more than 1000 nM.
Work on `Cc1nc2cc(F)c(-c3ccc(P(C)(C)=O)nc3)nc2c(N[C@H](C)c2cccc(F)c2F)c1C#N` [Example 144, 4-{[(1R)-1-(2,3-difluorophenyl)ethyl]amino}-6-[6-(dimethylphosphoryl)pyridin-3-yl]-7-fluoro-2-methyl-1,5-naphthyridine-3-carbonitrile] yielded an IC50 of 10000 to 30000 nM.
Compound `Cc1nc2cc(F)c(-c3ccc(P(C)(C)=O)nc3)nc2c(N[C@H](C)c2cccc(F)c2F)c1C1CC1` [Example 134, 3-cyclopropyl-N-[(1R)-1-(2,3-difluorophenyl)ethyl]-6-[6-(dimethylphosphoryl)pyridin-3-yl]-7-fluoro-2-methyl-1,5-naphthyridin-4-amine] has an IC50 of 1000 to 10000 nM.
`Cc1nc2ccc(-c3ccc(P(C)(C)=O)nc3)nc2c(N[C@H](C)c2cc(C#N)ccc2F)c1Cl` [Example 40, 3-[(1R)-1-({3-chloro-6-[6-(dimethylphosphoryl)pyridin-3-yl]-2-methyl-1,5-naphthyridin-4-yl}amino)ethyl]-4-fluorobenzonitrile] showed an IC50 of no more than 100 nM.
`Cc1nc2cc(F)c(-c3cnc(P(C)(C)=O)nc3)nc2c(N[C@H](C)c2cccc(C#N)c2)c1Cl` [Example 46, 3-[(1R)-1-({3-chloro-6-[2-(dimethylphosphoryl)pyrimidin-5-yl]-7-fluoro-2-methyl-1,5-naphthyridin-4-yl}amino)ethyl]benzonitrile] was tested, and the IC50 was no more than 100 nM.
`Cc1nc2cc(F)c(-c3ccc(P(C)(C)=O)nc3)nc2c(N[C@H](CO)c2ccccc2F)c1Cl` [Example 59, (2S)-2-({3-chloro-6-[6-(dimethylphosphoryl)pyridin-3-yl]-7-fluoro-2-methyl-1,5-naphthyridin-4-yl}amino)-2-(2-fluorophenyl)ethanol] was tested, and the IC50 was 10000 to 30000 nM.
For `Cc1nc2cc(F)c(-c3ccc(P(C)(C)=O)nc3)nc2c(N[C@@H](C)c2nc(C#N)ccc2F)c1Cl` [Example 122, 6-[(1S)-1-({3-chloro-6-[6-(dimethylphosphoryl)pyridin-3-yl]-7-fluoro-2-methyl-1,5-naphthyridin-4-yl}amino)ethyl]-5-fluoropyridine-2-carbonitrile], the IC50 was no more than 100 nM.
`Cc1nc2cc(F)c(-c3ccc(P(C)(C)=O)nc3)nc2c(N[C@H](C)c2cc(F)ccc2F)c1Cl` [Example 53, 3-chloro-N-[(1R)-1-(2,5-difluorophenyl)ethyl]-6-[6-(dimethylphosphoryl)pyridin-3-yl]-7-fluoro-2-methyl-1,5-naphthyridin-4-amine] was tested, and the IC50 was no more than 1000 nM.
In the case of `Cc1nc2cc(F)c(-c3cnc(P(C)(C)=O)c(F)c3)cc2c(N[C@H](C)c2cccc(F)c2F)c1Cl` [Example 135, 3-chloro-N-[(1R)-1-(2,3-difluorophenyl)ethyl]-6-[6-(dimethylphosphoryl)-5-fluoropyridin-3-yl]-7-fluoro-2-methylquinolin-4-amine], the IC50 is reported as no more than 100 nM.
Compound `CC[C@H](Nc1c(Cl)c(C)nc2cc(F)c(-c3cnc(P(C)(C)=O)nc3)cc12)c1cccc(F)c1F` [Example 115, (S)-(5-(3-chloro-4-((1-(2,3-difluorophenyl)propyl)amino)-7-fluoro-2-methylquinolin-6-yl)pyrimidin-2-yl)dimethylphosphine oxide] has an IC50 of no more than 1000 nM.
`Cc1nc2cc(F)c(-c3ccc(P(C)(C)=O)nc3)nc2c(N[C@H](C)c2cc(F)cc(C#N)c2)c1Cl` [Example 99, 3-[(1R)-1-({3-chloro-6-[6-(dimethylphosphoryl)pyridin-3-yl]-7-fluoro-2-methyl-1,5-naphthyridin-4-yl}amino)ethyl]-5-fluorobenzonitrile] gave an IC50 of no more than 1000 nM.
Work on `Cc1nc2cc(F)c(-c3ccc(P(C)(C)=O)nc3)nc2c(N[C@H](C)c2cccc(F)c2F)c1C` [Example 133, N-[(1R)-1-(2,3-difluorophenyl)ethyl]-6-[6-(dimethylphosphoryl)pyridin-3-yl]-7-fluoro-2,3-dimethyl-1,5-naphthyridin-4-amine] yielded an IC50 of no more than 100 nM.
`CCC(Nc1c(Cl)c(C)nc2cc(F)c(-c3ccc(P(C)(C)=O)nc3)nc12)c1cnn(C)c1` (centres unmarked) [Example 104, 3-chloro-6-[6-(dimethylphosphoryl)pyridin-3-yl]-7-fluoro-2-methyl-N-[1-(1-methylpyrazol-4-yl)propyl]-1,5-naphthyridin-4-amine] showed an IC50 of no more than 1000 nM.
